Drawing on DBAASP, this text covers MIC for 6 compounds.

Converted amounts (≈) assume the structure as drawn.

Broadly, the MIC is the smallest concentration in the dilution series that meets the test's criterion for growth inhibition.

Some test systems named below: Staphylococcus aureus; Escherichia coli; Pseudomonas putida; Candida albicans; Serratia marcescens; Saccharomyces cerevisiae; Staphylococcus aureus 37; Escherichia coli 117; Pseudomonas aeruginosa; Staphylococcus aureus 10; Shigella dysenteriae; Escherichia coli W160-37; Nocardia asteroides; Candida glabrata 090902.
Holding throughout (test): ≥ marks a high value that may be exact or a test limit, other limits are often not marked, values filed in µg/mL are converted to µM
In experiment [1] the test system is Escherichia coli ATCC 2592.
Experiment [2] deals with Candida albicans ATCC 36232.
The subject of experiment [3] is Pseudomonas aeruginosa ATCC 9027.
For experiment [4], the system named is Proteus vulgaris ATCC 6380.
The test system of experiment [5] is Staphylococcus aureus ATCC 6538.
The subject of experiment [6] is Micrococcus luteus ATCC 9341.
The test system of experiment [7] is Shigella dysenteriae ATCC 9752.
The test system of experiment [8] is Proteus mirabilis ATCC 25933.
Experiment [9] deals with Salmonella enterica subsp. enterica serovar Typhimurium ATCC 14028.
In experiment [10] the test system is Klebsiella pneumoniae ATCC 10031.
For experiment [11], the system named is Staphylococcus epidermidis ATCC 12228.
Experiment [12] has as its system Bacillus subtilis KCTC 1021.
Experiment [13] deals with Micrococcus luteus ATCC 4698.
For experiment [14], the system named is Staphylococcus aureus ATCC 25923.
The test system of experiment [15] is Pseudomonas aeruginosa ATCC 27853.
The test system of experiment [16] is Candida parapsilosis ATCC 22019.
Experiment [17] relates to Pseudomonas aeruginosa CMCCB 1010.
For experiment [18], the system named is Klebsiella pneumoniae ATCC 700603.
In experiment [19] the test system is Candida albicans ATCC 90028.
The test system of experiment [20] is Enterobacter cloacae ATCC 13047.
Experiment [21] deals with Staphylococcus epidermidis.
Experiment [22] relates to Staphylococcus aureus A170.
The subject of experiment [23] is Enterobacter cloacae CGMCC 1.57.
Experiment [24] deals with Psychrobacter faecalis X29.
Experiment [25] relates to Enterococcus faecalis 981.

On to `CC[C@H](C)[C@H](NC(=O)[C@H](CCCCN)NC(=O)[C@@H]1CCCN1C(=O)[C@H](CC(C)C)NC(=O)[C@H](Cc1ccccc1)NC(=O)[C@H](CC(N)=O)NC(=O)[C@H](C)N)C(=O)N[C@@H](Cc1ccccc1)C(=O)N[C@@H](CS)C(=O)N[C@@H](CCCCN)C(=O)N[C@H](C(=O)N[C@H](C(=O)N[C@@H](CCCN=C(N)N)C(=O)N[C@@H](CCCCN)C(=O)N[C@@H](CS)C(N)=O)[C@@H](C)O)[C@@H](C)CC` [ANFLPKIFCKITRKC], for which the MIC with Staphylococcus aureus was over 56.1 µM; in experiment [1], 28.1 µM (≈ 50 µg/mL); in experiment [2] it was 28.1 µM (≈ 50 µg/mL); in experiment [3] it was 28.1 µM (≈ 50 µg/mL); in experiment [4] it was at least 56.1 µM; in experiment [5] it was 56.1 µM (≈ 99.9 µg/mL). Moreover, in experiment [6], the MIC was found to be 14 µM (≈ 25 µg/mL).
`CC[C@H](C)[C@H](NC(=O)CN)C(=O)N[C@@H](CCSC)C(=O)N[C@@H](CO)C(=O)N[C@H](C(=O)N[C@H](C(=O)N[C@@H](CCCCN)C(=O)N[C@@H](CC(=O)O)C(=O)N[C@H](C(=O)N[C@@H](C)C(=O)N[C@@H](CCCCN)C(=O)N[C@H](C(=O)N[C@@H](C)C(=O)N[C@@H](C)C(=O)N[C@@H](CCCCN)C(=O)N[C@@H](CCC(=O)O)C(=O)N[C@@H](C)C(=O)N[C@@H](C)C(=O)N[C@@H](CCCCN)C(=O)NCC(=O)N[C@@H](C)C(=O)N[C@@H](CC(C)C)C(=O)N[C@@H](CO)C(=O)N[C@H](C(=O)N[C@@H](CC(C)C)C(=O)N[C@@H](CO)C(=O)N[C@H]1CSSC[C@@H](C(=O)O)NC(=O)[C@H]([C@@H](C)O)NC(=O)[C@H](CCCCN)NC(=O)[C@H](C)NC(=O)[C@H](CC(C)C)NC(=O)[C@H](CCCCN)NC1=O)[C@@H](C)O)[C@@H](C)O)C(C)C)C(C)C)[C@@H](C)CC` [GIMSIVKDVAKTAAKEAAKGALSTLSCKLAKTC]: the MIC was 7.56 µM (≈ 25 µg/mL) in experiment [7]; at least 60.4 µM in [8]; 22.7 µM (≈ 75 µg/mL) in the experiment with Escherichia coli; 15.1 µM (≈ 50 µg/mL) against Pseudomonas putida; over 60.4 µM with Candida albicans; 45.3 µM (≈ 150 µg/mL) in experiment [9]. In addition, the MIC in the experiment on Serratia marcescens was at least 60.4 µM; in experiment [3], 15.1 µM (≈ 50 µg/mL); in experiment [10] it was 7.56 µM (≈ 25 µg/mL); in [11], 3.02 µM (≈ 9.99 µg/mL); in the experiment with Saccharomyces cerevisiae it was at least 60.4 µM; in experiment [12], 3.02 µM (≈ 9.99 µg/mL). For the same compound, the MIC in experiment [13] is 0.755 µM (≈ 2.5 µg/mL).
With `CC[C@H](C)[C@H](N)C(=O)N[C@@H](CC(N)=O)C(=O)N[C@@H](CC(C)C)C(=O)N[C@@H](CCCCN)C(=O)N[C@@H](C)C(=O)N[C@H](C(=O)N[C@@H](C)C(=O)N1CCC[C@H]1C(=O)N[C@@H](CC(C)C)C(=O)N[C@@H](C)C(=O)N[C@@H](CCCCN)C(=O)N[C@@H](CCCCN)C(=O)N[C@@H](CC(C)C)C(=O)N[C@@H](CC(C)C)C(=O)O)[C@@H](C)CC` [INLKAIAPLAKKLL], the minimal inhibitory concentration (MIC) was 53.1 µM (≈ 80 µg/mL) in experiment [14]; 6.64 µM (≈ 10 µg/mL) in experiment [15]; at least 53.1 µM against Staphylococcus aureus 37; at least 53.1 µM with Escherichia coli 117; 13.3 µM (≈ 20 µg/mL) in [16]; 6.64 µM (≈ 10 µg/mL) in [17]. The MIC in [18] was found to be 13.3 µM (≈ 20 µg/mL); against Pseudomonas aeruginosa, 53.1 µM (≈ 80 µg/mL); in the experiment on Staphylococcus aureus 10 it was 26.6 µM (≈ 40 µg/mL); in experiment [19], 13.3 µM (≈ 20 µg/mL); against Shigella dysenteriae, 6.64 µM (≈ 10 µg/mL); in [20], 26.6 µM (≈ 40 µg/mL).
For `CC[C@H](C)[C@H](NC(=O)[C@H](CCCCN)NC(=O)[C@H](CCCCN)NC(=O)[C@H](Cc1c[nH]c2ccccc12)NC(=O)[C@H](CCCCN)NC(=O)[C@H](CO)NC(=O)[C@H](CC(C)C)NC(=O)[C@H](Cc1ccccc1)NC(=O)[C@@H](NC(=O)[C@H](CCCCN)NC(=O)[C@H](CC(C)C)NC(=O)[C@H](CC(C)C)NC(=O)[C@H](CCCCN)NC(=O)[C@@H]1CCCN1)[C@@H](C)O)C(=O)NCC(=O)O` [PKLLKTFLSKWKKIG], the MIC is 17 µM (≈ 30.4 µg/mL) in the experiment on Staphylococcus aureus and 22 µM (≈ 39.3 µg/mL) with Escherichia coli W160-37.
In the case of `CC[C@H](C)[C@H](NC(=O)[C@@H]1CCCN1C(=O)[C@H](CC(C)C)NC(=O)[C@@H](N)CC(C)C)C(=O)N[C@H](C(=O)NCC(=O)N[C@@H](CC(N)=O)C(=O)N[C@@H](CC(C)C)C(=O)N[C@@H](CC(C)C)C(=O)N[C@@H](CCCCN)C(=O)N[C@@H](C)C(=O)N[C@@H](CC(C)C)C(=O)N[C@@H](CC(C)C)C(=O)O)C(C)C` [LLPIVGNLLKALL], the MIC in experiment [21] came to 14.5 µM (≈ 20 µg/mL); in experiment [22] it was 7.26 µM (≈ 10 µg/mL).
On to `CC[C@H](C)[C@H](NC(=O)[C@H](CC(C)C)NC(=O)CNC(=O)[C@H](CO)NC(=O)[C@@H](NC(=O)[C@@H](N)Cc1ccccc1)[C@@H](C)CC)C(=O)NCC(=O)NCC(=O)N[C@@H](CC(C)C)C(=O)N[C@@H](CCSC)C(=O)N[C@@H](CCCCN)C(=O)N[C@@H](C)C(=O)N[C@@H](CC(C)C)C(N)=O` [FISGLIGGLMKAL], for which the MIC in [14] was 25 µM (≈ 33 µg/mL); in [23] it was at least 400 µM; with Nocardia asteroides, 25 µM (≈ 33 µg/mL); in [24], at least 200 µM; with Candida glabrata 090902, at least 100 µM; in [25] it was at least 50 µM.
